One assay concerns the target T1, human CB1 receptor (Homo sapiens, UniProt P21554).
T1 construct: host or cells: CHO-K1 (Chinese hamster ovary) cells, stably transfected; membranes prepared in house
As to the kind of experiment: CB1 radioligand ([3H]CP 55,940) competitive binding assay.

The target of a further assay is T2, human CB2 receptor (Homo sapiens, UniProt P34972).
T2 construct: host or cells: CHO-K1 (Chinese hamster ovary) cells, stably transfected; membranes prepared in house
The experiment in a line: CB2 radioligand ([3H]CP 55,940) competitive binding assay. To be noted: for Selectivity CB2: fold difference in selectivity between CB1 and CB2 binding, shown in the column of the receptor with higher affinity. How it is done:
Compounds of the present disclosure were tested for CB1 receptor binding affinity and for CB2 receptor binding affinity. As used herein, “binding affinity” is represented by the IC50 value, which was experimentally determined as described herein. The lower the IC50 value the higher the binding affinity. A compound of the present disclosure may be said to have “binding selectivity” if it has a higher binding affinity for one receptor compared to the other.
The membranes were prepared from CHO-K1 (Chinese hamster ovary) cells stably transfected with the human CB2 receptor (Cat. #ES-111-C; Perkin Elmer, Boston, Mass.). The cells were grown adherently and maintained in Ham's F12 medium containing 10% fetal bovine serum (FBS), penicillin, streptomycin and geneticin (G418) at 37° C. in a humid atmosphere of 5% CO2 following the manufacturer's instructions.
For membrane preparation the cells were washed with PBS and scraped off the plates in cold homogenization buffer (25 mM HEPES (pH 7.4), 2 mM EDTA) containing protease inhibitor cocktail (Sigma Cat. #P8340). The cell suspension was homogenized with a Pro-PK-01200D Polytron Homogenizer (Pro Scientific) and then centrifuged for 30 min at 120,000×g. The supernatant was discarded and the pellet was re-suspended in the homogenization buffer and stored at −80° C. until the time of use.
In this experiment, 3H radiolabeled CP 55,940, i.e. [3H]CP 55,940 (Perkin Elmer, Boston, Mass.), was used as a radioligand for the CB2 receptor to determine the binding affinity of compounds for the CB2 receptor (Scheme 4; above).
The competition binding experiments (single dose and dose-response) were performed by incubating 0.6 nM of [3H]CP55,940 (specific activity 101 Ci/mmol, Perkin Elmer) and different concentrations of compounds disclosed herein with membranes prepared as above from CHO-K1 cells expressing human CB2 receptor (1 μg of protein/well), 50 mM Tris-HCl (pH 7.4), 5 mM MgCl2, 1 mM CaCl2, and 2 mg/mL BSA.
For the single dose experiments, the compound stocks (usually 10 mM in DMSO) were diluted to working stocks in the binding buffer to give the final compound concentrations of 10 μM and 1 μM. For the dose-response experiments the test compounds were sequentially diluted to provide the desired concentration range for the IC50 determination. In each case the compounds were pre-incubated with the membrane for 20 min, before adding the radioligand.
After incubation with the radioligand for 60 min at 37° C., the incubation was terminated by rapid filtration of assay mixture through MultiScreen®HTS^+ 96-well filter plates (Millipore, Cat. #MSFCNXB), pre-soaked for 60 min with 50 mM Tris-HCl (pH 7.4) containing 0.33% polyethylenimine (PEI). The nonspecific binding (NSB) was determined in the presence of 10 μM unlabelled CP55,940. After drying the filter plate at 50° C. for at least 60 min, the filter-bound radioactivity was determined by scintillation spectrometry using the 1450 MicroBeta Plate Counter (Perkin Elmer, Boston, Mass.). From the dose-response experiments, the IC50 values were determined (see Table 1, CB2 IC50).

Setting [1] is: displacement of 0.8 nM [3H]CP 55,940, CHO-K1 membranes expressing human CB1, read-out: CB1 IC50.
[2] abbreviates: displacement of 0.6 nM [3H]CP55,940, CHO-K1 membranes expressing human CB2, read-out: CB2 IC50.

The values below come from patent US20230286906A1, “CANNABINOID DERIVATIVES” (CANOPY GROWTH CORPORATION, priority 2019, published 2023).

Structures are written as SMILES. Read-outs that look alike come from different tables or passages of the source.

T1 sequence (P21554 whole entry): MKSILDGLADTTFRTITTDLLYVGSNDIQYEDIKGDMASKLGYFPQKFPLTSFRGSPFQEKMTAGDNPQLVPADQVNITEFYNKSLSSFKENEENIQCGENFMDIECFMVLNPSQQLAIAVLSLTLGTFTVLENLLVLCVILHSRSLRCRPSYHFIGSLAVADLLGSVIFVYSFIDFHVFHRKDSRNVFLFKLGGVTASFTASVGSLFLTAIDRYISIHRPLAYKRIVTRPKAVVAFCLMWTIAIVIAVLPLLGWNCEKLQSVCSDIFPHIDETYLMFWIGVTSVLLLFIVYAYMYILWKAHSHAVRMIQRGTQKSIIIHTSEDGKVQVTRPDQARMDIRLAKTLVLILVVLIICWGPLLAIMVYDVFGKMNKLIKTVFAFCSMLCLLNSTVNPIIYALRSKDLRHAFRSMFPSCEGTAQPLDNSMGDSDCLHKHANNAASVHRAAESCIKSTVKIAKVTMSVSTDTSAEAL
T2 sequence (P34972 whole entry): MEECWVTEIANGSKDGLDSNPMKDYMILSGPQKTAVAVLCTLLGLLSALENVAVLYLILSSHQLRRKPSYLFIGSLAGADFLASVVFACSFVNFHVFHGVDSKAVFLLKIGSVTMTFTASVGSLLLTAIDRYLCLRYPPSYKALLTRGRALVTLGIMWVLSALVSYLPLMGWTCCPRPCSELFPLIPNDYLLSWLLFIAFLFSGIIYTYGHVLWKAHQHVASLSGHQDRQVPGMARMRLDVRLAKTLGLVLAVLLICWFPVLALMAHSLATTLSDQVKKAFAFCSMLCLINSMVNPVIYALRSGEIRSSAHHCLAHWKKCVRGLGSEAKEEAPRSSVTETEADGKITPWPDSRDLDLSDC

Consider `CCCCCc1c(CN(C)C(=O)OC)c(O)c(CC=C(C)CCC=C(C)C)c(O)c1CN(C)C(=O)OC` [Compound 59, dimethyl ((5-(3,7-dimethylocta-2,6-dien-1-yl)-4,6-dihydroxy-2-pentyl-1,3-phenylene)bis(methylene))bis(methylcarbamate)], for which the IC50 on human CB1 receptor (setting [1]) and at human CB2 receptor (setting [2]) was 0.5 to 0.99 µM each time. Besides, on human CB2 receptor, the “Selectivity CB2” value is 1.49.
As to `CCCCCc1cc(O)c(C/C=C(\C)CCC=C(C)C)c(O)c1C(=O)NCc1ccc(F)cc1` [Compound 61, 3-(3,7-dimethylocta-2,6-dien-1-yl)-N-(4-fluorobenzyl)-2,4-dihydroxy-6-pentylbenzamide], the IC50 at human CB1 receptor (setting [1]) was 0.5 to 0.99 µM; at human CB2 receptor (setting [2]) it was below 0.5 µM. For the same molecule, the “Selectivity CB2” value on human CB2 receptor is on record as 118.29.
Regarding `CCCCCc1cc(O)c(C/C=C(\C)CCC=C(C)C)c(O)c1C(=O)N(CC)CC` [Compound 50, 3-(3,7-dimethylocta-2,6-dien-1-yl)-N,N-diethyl-2,4-dihydroxy-6-pentylbenzamide], the IC50 on human CB1 receptor is above 5 µM. Further, on human CB2 receptor, the IC50 lay in the range of 1 to 4.99 µM and the “Selectivity CB2” value was found to be 4.80.
As to `CCCCCc1cc(O)c(C/C=C(\C)CCC=C(C)C)c(O)c1C(=O)Nc1ccc(F)cc1` [Compound 60, 3-(3,7-dimethylocta-2,6-dien-1-yl)-N-(4-fluorophenyl)-2,4-dihydroxy-6-pentyl benzamide], the IC50 at human CB1 receptor (setting [1]) was 1 to 4.99 µM; on human CB2 receptor (setting [2]), below 0.5 µM. Besides, the “Selectivity CB2” value at human CB2 receptor came to 2.52.
For `CCCCCc1cc(O)c(C/C=C(\C)CCC=C(C)C)c(O)c1C(=O)N1CCOCC1` [Compound 39] the same measures were above 5 µM, below 0.5 µM and 24.32.
In the case of `CCCCCc1cc(O)c(C/C=C(\C)CCC=C(C)C)c(O)c1C(=O)Nc1ccc(OC)cc1` [Compound 11, 3-(3,7-dimethylocta-2,6-dien-1-yl)-2,4-dihydroxy-N-(4-methoxyphenyl)-6-pentylbenzamide], the IC50 at human CB1 receptor (setting [1]) lay in the range of 1 to 4.99 µM; at human CB2 receptor (setting [2]), 0.5 to 0.99 µM. Moreover, the “Selectivity CB2” value on human CB2 receptor was 2.35.
Taken in the same sequence, the figures for `CCCCCc1cc(O)c(C/C=C(\C)CCC=C(C)C)c(O)c1C(=O)NC` [Compound 1, 3-(3,7-dimethylocta-2,6-dien-1-yl)-2,4-dihydroxy-N-methyl-6-pentylbenzamide] were above 5 µM, 1 to 4.99 µM and 4.06.
For `CCCCCc1cc(O)c(C/C=C(\C)CCC=C(C)C)c(O)c1C(=O)N1CCCC1` [Compound 41, (3-(3,7-dimethylocta-2,6-dien-1-yl)-2,4-dihydroxy-6-pentylphenyl)(pyrrolidin-1-yl)methanone], the IC50 is above 5 µM at human CB1 receptor (setting [1]) and 1 to 4.99 µM on human CB2 receptor (setting [2]). Moreover, the “Selectivity CB2” value at human CB2 receptor was found to be 11.54.
The molecule `CCCCCc1cc(O)c(C/C=C(\C)CCC=C(C)C)c(O)c1C(=O)Nc1cccnc1` [Compound 63, 3-(3,7-dimethylocta-2,6-dien-1-yl)-2,4-dihydroxy-6-pentyl-N-(pyridin-3-yl) benzamide] displayed an IC50 on human CB1 receptor of 1 to 4.99 µM. Further, at human CB2 receptor, the half-maximal inhibitory concentration (IC50) is 1 to 4.99 µM and the “Selectivity CB2” value is 2.20.
Consider `CCCCCc1cc(O)c(C/C=C(\C)CCC=C(C)C)c(O)c1C(=O)Nc1ccccc1` [Compound 10, 3-(3,7-dimethylocta-2,6-dien-1-yl)-2,4-dihydroxy-6-pentyl-N-phenylbenzamide], for which the IC50 on human CB1 receptor (setting [1]) is above 5 µM; on human CB2 receptor (setting [2]), 1 to 4.99 µM. Further, the “Selectivity CB2” value at human CB2 receptor is 4.86.
For `CCCCCc1cc(O)c(C/C=C(\C)CCC=C(C)C)c(O)c1C(=O)NCc1cccnc1` [Compound 62, 3-(3,7-dimethylocta-2,6-dien-1-yl)-2,4-dihydroxy-6-pentyl-N-(pyridin-3-ylmethyl)benzamide] the same measures were 1 to 4.99 µM, 0.5 to 0.99 µM and 4.71.
For `CCCCCc1cc(O)c(CC=C(C)CCC=C(C)C)c(O)c1CN(C)C(=O)OC` [Compound 58, methyl (3-(3,7-dimethylocta-2,6-dien-1-yl)-2,4-dihydroxy-6-pentylbenzyl)(methyl)carbamate] the same measures were 1 to 4.99 µM, below 0.5 µM and 30.00.
For `CCCCCc1cc(O)c(C/C=C(\C)CCC=C(C)C)c(O)c1C(=O)NC1CC1` [Compound 6, N-cyclopropyl-3-(3,7-dimethylocta-2,6-dien-1-yl)-2,4-dihydroxy-6-pentylbenzamide], the IC50 at human CB1 receptor (setting [1]) and at human CB2 receptor (setting [2]) was 1 to 4.99 µM each time. The “Selectivity CB2” value at human CB2 receptor is recorded as 3.41.
Consider `CCCCCc1cc(O)c(C/C=C(\C)CCC=C(C)C)c(O)c1C(=O)NCc1ccccc1` [Compound 14, N-benzyl-3-(3,7-dimethylocta-2,6-dien-1-yl)-2,4-dihydroxy-6-pentylbenzamide], for which the IC50 was above 5 µM at human CB1 receptor (setting [1]) and 1 to 4.99 µM at human CB2 receptor (setting [2]). Moreover, the “Selectivity CB2” value on human CB2 receptor worked out at 8.57.

As usually defined, the IC50 is the concentration that gives 50% inhibition.
